Measurements as given in patent publication US8920832B2, “Composition for nucleic acid transfection” (Hokkaido System Science Co., Ltd., priority 2006, dated 2014).

Key:
[1] = tested on: HeLa cells; assay: Cytotoxicity score under microscope after DNA transfection, HeLa cells; format: cell-based
Procedure: (§4) HeLa cells were inoculated into a 96-well plate (7,500 cells/100 μL/well), followed by culturing for about 24 hours. DNA (pCMV-SPORT-βgal) was diluted with a DMEM medium, to thereby prepare a DNA-diluted solution having a DNA concentration of 8 μg/mL (for the case of 200 ng/well). […] The thus-obtained solution or Lipofectamine 2000 as a positive control (product of Invitrogen) was diluted with a DMEM medium so that the amount of the reconstituted liposome solution or Lipofectamine 2000 added to cells was “Amount of liposomes added (μL/well)” shown in Table 9 or 10. Immediately after dilution, the DNA-diluted solution (25 μL) was added to and mixed with the liposome-diluted solution (25 μL), and the mixture was allowed to stand still at room temperature for 30 minutes, to thereby form a DNA/liposome complex. The DNA/liposome complex (50 μL) was added to the inoculated HeLa cells (about 70 to about 90% confluent), to thereby initiate transfection. After culturing at 37° C. and 5% CO2 for one hour, a 10% FBS/DMEM medium (100 μL) was added to the culture liquid, followed by culturing at 37° C. and 5% CO2 for about 21 hours.
(§5) Each of the enhancers shown in Table 13 was diluted with a DMEM medium to different concentrations so that the amount of the enhancer finally added to cells was “Enhancer amount (μg/well)” shown in Table 13. […] The thus-diluted liposome solution was added to an equiamount of the above-diluted enhancer, followed by incubation at room temperature for 20 minutes. […] Subsequently, cytotoxicity was evaluated according to the aforementioned scores, and determination of β-gal activity, quantitative determination of protein, and viable cell counting were carried out.

[2] = tested on: HT1080 cells; assay: Cytotoxicity score under microscope after DNA transfection, HT1080 cells; format: cell-based; set-up: scale not given here
Description: (§1) The procedure of Test Example 5 was repeated, except that HeLa cells were replaced with HT1080 cells.
(§2) The procedure of Test Example 7 was repeated, except that HeLa cells were replaced with HT1080 cells.

[3] = tested on: HeLa cells; assay: DNA (pCMV-SPORT-βgal) transfection into HeLa cells: β-gal activity; details: for β-gal activity: HeLa
Procedure: as §4
The culture supernatant was removed, and the cells were washed with PBS(−). Thereafter, determination of β-galactosidase (hereinafter may be abbreviated as “β-gal”) activity, quantitative determination of protein, and viable cell counting were carried out as described below.
After complete removal of PBS through suction, a lysis buffer (30 μL) was added to the cells, and the mixture was stirred and then allowed to stand still at −80° C. for 30 minutes or longer for freezing. After rapid thawing in a water bath at 37° C., the mixture was again allowed to stand still at −80° C. for 30 minutes or longer for freezing, followed by rapid thawing in a water bath at 37° C. Thereafter, centrifugation was carried out (2,000 g×10 minutes), and the resultant supernatant (sample) (10 μL) was added to a 96-well microplate.
Determination of β-gal activity was carried out by means of a β-gal assay kit (product of Invitrogen). […] A 2-Me-containing cleavage buffer was added (50 μL/well) to the sample or each of the standard-diluted solutions (10 μL), and 4 mg/mL aqueous ONPG solution was added (17 μL/well), followed by incubation at 37° C. for 30 minutes. After completion of incubation, a stop buffer was added (120 μL/well) for termination of reaction, and absorbance was measured at 405 nm.
as §5

[4] = tested on: HT1080 cells; assay: DNA (pCMV-SPORT-βgal) transfection into HT1080 cells: β-gal activity; format: cell-based
Description: as §1, §2

[5] = tested on: HT1080 cells; assay: Viable cell counting (WST-1), cell survival rate, HT1080 cells; format: cell-based; details: Formulation Example 4 0.38 μL/well
Procedure: (§3) Viable cell counting was carried out by means of a Cell Counting Kit (product of Dojindo Laboratories) based on WST-1 assay. […] Thereafter, absorbance was measured at 450 nm. A cell count vs. A450 standard curve was prepared on the basis of a separately prepared dilution series of different numbers of inoculated cells, and the number of viable cells was estimated by use of the standard curve.
as §1, §2

[6] = tested on: HeLa cells; assay: Viable cell counting (WST-1), cell survival rate, HeLa cells; format: cell-based; details: Formulation Example 4 0.38 μL/well
Procedure: as §3

[7] = Formulation Example 4 0.38 μL/well, enhancer 6.25 μg/well
[8] = Formulation Example 4 0.38 μL/well, enhancer 12.5 μg/well
[9] = Formulation Example 4 0.38 μL/well, enhancer 25 μg/well
[10] = Formulation Example 4 0.38 μL/well, enhancer 50 μg/well
[11] = Formulation Example 4 0.38 μL/well, enhancer 100 μg/well
[12] = Formulation Example 4 0.75 μL/well, enhancer 6.25 μg/well
[13] = Formulation Example 4 0.75 μL/well, enhancer 12.5 μg/well
[14] = Formulation Example 4 0.75 μL/well, enhancer 25 μg/well
[15] = Formulation Example 4 0.75 μL/well, enhancer 50 μg/well
[16] = Formulation Example 4 0.75 μL/well, enhancer 100 μg/well
[17] = Formulation Example 4 0.38 μL/well, enhancer 2.5 μg/well
[18] = Formulation Example 4 0.38 μL/well, enhancer 5 μg/well
[19] = Formulation Example 4 0.38 μL/well, enhancer 10 μg/well
[20] = Formulation Example 4 0.38 μL/well, enhancer 20 μg/well
[21] = Formulation Example 4 0.38 μL/well, enhancer 40 μg/well

## NCCCNCCCCNCCCN [Spermine]
[1]; [7]
  Cytotoxicity score: 0.0
[1]; [8]
  Cytotoxicity score: 0.0
[1]; [9]
  Cytotoxicity score: 0.0
[1]; [10]
  Cytotoxicity score: 2.0
[1]; [11]
  Cytotoxicity score: 2.0
[1]; [12]
  Cytotoxicity score: 4.0
[1]; [13]
  Cytotoxicity score: 4.0
[1]; [14]
  Cytotoxicity score: 4.0
[1]; [15]
  Cytotoxicity score: 4.0
[1]; [16]
  Cytotoxicity score: 2.0
[2]; [7]
  Cytotoxicity score: 2.5
[2]; [8]
  Cytotoxicity score: 2.0
[2]; [9]
  Cytotoxicity score: 2.5
[2]; [10]
  Cytotoxicity score: 2.0
[2]; [11]
  Cytotoxicity score: 1.0
[2]; [12]
  Cytotoxicity score: 2.0
[2]; [13]
  Cytotoxicity score: 2.5
[2]; [14]
  Cytotoxicity score: 3.0
[2]; [15]
  Cytotoxicity score: 2.0
[2]; [16]
  Cytotoxicity score: 2.0
[3]; [7]
  β-gal activity: 0.8 mU/well
[3]; [8]
  β-gal activity: 1.0 mU/well
[3]; [9]
  β-gal activity: 0.2 mU/well
[3]; [10]
  β-gal activity: 0.2 mU/well
[3]; [11]
  β-gal activity: 0.1 mU/well
[3]; [12]
  β-gal activity: 1.8 mU/well
[3]; [13]
  β-gal activity: 0.1 mU/well
[3]; [14]
  β-gal activity: 0.0 mU/well
[3]; [15]
  β-gal activity: 0.1 mU/well
[3]; [16]
  β-gal activity: 0.3 mU/well
[4]; [7]
  β-gal activity: 31.1 mU/well
[4]; [8]
  β-gal activity: 29.1 mU/well
[4]; [9]
  β-gal activity: 34.9 mU/well
[4]; [10]
  β-gal activity: 21.5 mU/well
[4]; [11]
  β-gal activity: 6.8 mU/well
[4]; [12]
  β-gal activity: 76.5 mU/well
[4]; [13]
  β-gal activity: 64.6 mU/well
[4]; [14]
  β-gal activity: 72.9 mU/well
[4]; [15]
  β-gal activity: 10.9 mU/well
[4]; [16]
  β-gal activity: 1.3 mU/well

## CCCC(=O)[O-].[Na+] [sodium butyrate]
[1]; [17]
  Cytotoxicity score: 1.5
[1]; [18]
  Cytotoxicity score: 1.0
[1]; [19]
  Cytotoxicity score: 1.0
[1]; [20]
  Cytotoxicity score: 1.5
[1]; [21]
  Cytotoxicity score: 2.0
[5]; enhancer 2.5 μg/well
  Cell survival rate: 55%
[5]; enhancer 5 μg/well
  Cell survival rate: 50%
[5]; enhancer 10 μg/well
  Cell survival rate: 53%
[5]; enhancer 20 μg/well
  Cell survival rate: 52%
[5]; enhancer 40 μg/well
  Cell survival rate: 62%
[6]; enhancer 2.5 μg/well
  Cell survival rate: 67%
[6]; enhancer 5 μg/well
  Cell survival rate: 73%
[6]; enhancer 10 μg/well
  Cell survival rate: 65%
[6]; enhancer 20 μg/well
  Cell survival rate: 66%
[6]; enhancer 40 μg/well
  Cell survival rate: 68%
[2]; [17]
  Cytotoxicity score: 1.5
[2]; [18]
  Cytotoxicity score: 1.5
[2]; [19]
  Cytotoxicity score: 2.0
[2]; [20]
  Cytotoxicity score: 2.5
[2]; [21]
  Cytotoxicity score: 3.0
[3]; [17]
  β-gal activity: 20.4 mU/well
[3]; [18]
  β-gal activity: 19.8 mU/well
[3]; [19]
  β-gal activity: 18.7 mU/well
[3]; [20]
  β-gal activity: 20.9 mU/well
[3]; [21]
  β-gal activity: 26.7 mU/well
[3]; enhancer added to liposome solution of Formulation Example 4, summary of Tables 13 and 14 (HeLa and HT1080)
  effect of enhancer on nucleic-acid-transfecting performance and cytotoxicity, in words: excellent effects
[4]; [17]
  β-gal activity: 45.0 mU/well
[4]; [18]
  β-gal activity: 40.2 mU/well
[4]; [19]
  β-gal activity: 37.3 mU/well
[4]; [20]
  β-gal activity: 40.3 mU/well
[4]; [21]
  β-gal activity: 45.6 mU/well
